{"source": "patent US20240341301A1", "about": "(The Regents of the University of Michigan, priority 2023, published 2024)", "key": {"Irg1": {"tested_on": "Irg1", "test": "Irg1 mRNA transcript expression in preserved murine donor hearts", "set-up": "species or system mouse", "settings": "16 hours preservation without reperfusion and during ex vivo perfusion", "description": "(§1) Male and female WT or Irg1^−/− mice (Jackson laboratories, Bar Harbor, ME) were anesthetized intraperitoneally with 80 mg/kg ketamine and 5 mg/kg xylazine, anticoagulated with heparin (2,000 U/kg iv), and the heart was rapidly exposed through a sternal incision. The aorta was cannulated and retrograde perfused in-situ with HTK solution±HDAC inhibitors. After cannulation, the heart dissected free, the left atrium was opened. For 4-OI (Cayman Chemical, 25374) experiments, donor mice were treated 4-OI (dissolved in 40% β-Cyclodextrin, 50 mg/kg intraperitoneally) or vehicle control (40% β-Cyclodextrin intraperitoneally) 2 hours prior to donor heart procurement. After dissection, the heart was stored at 4° C. with HTK or HTK with VPA for a pre-designated duration. The hearts were then mounted on a Radnoti mouse Langendorff apparatus (ADInstruments inc., Colorado Springs, CO) in constant-pressure mode (˜70 mmHg) with a modified Krebs-Henseleit buffer (KHB; in mM: 118 NaCl, 4.7 KCl, 1.25 CaCl2), 1.66 MgSO4, 24.88 NaHCO3, 1.18 KH2PO4, 5.55 glucose, and 2.0 Na-pyruvate). A balloon was placed in the LV through the left atrium and left ventricular diastolic pressure was set to ˜8 mmHg at initiation. The heart was perfused with modified Krebs-Henseleit buffer for 30 min to stabilize and then hemodynamics measurements were recorded. Myocardial temperature was maintained at 37° C. LabChart software (ADInstruments inc., Colorado Springs, CO) was used to record ventricular function, perfusion pressures, cardiac chamber temperature and myocardial temperature. After perfusing the heart for 60 minutes, the heart was removed from the ex-vivo perfusion apparatus for specimen collection. Tissue was immediately placed in liquid N2 or treated with 4% formalin."}, "[1]": {"settings": "cited from earlier work"}, "[2]": {"tested_on": "H3K9 and H3K27 histone acetylation", "test": "Histone acetylation Western blot in cold-preserved human donor hearts", "settings": "HTK containing VPA, cold (4° C.) static preservation 8 h", "description": "Heart procurement for both human and pigs were performed as follows. A sternotomy is performed under general anesthesia. The pericardium is then opened to create a pericardial cradle for the heart. Heparin (300U/kg) administered through the right atrium or in a peripheral vein. After waiting 3 minute for adequate anticoagulation from heparin, a 9 Fr antegrade plegia infusion catheter is placed in the ascending aorta. Approximately 1 liter of autologous donor arterial blood is then collected into a collection bottle containing heparin. […] Subsequently, the ascending aorta is cross-clamped distal to the cardioplegia catheter and 1 liter of cold (4° C.) HTK solution is infused into the coronaries at a perfusion pressure of ˜80 mmHg to induce mechanical arrest. After excising the heart completely, it is transported to the back-table for infusion of 2 liters of HTK±VPA solution. After completion, the heart is stored in a solution identical to the perfusate at 4° C. on ice.\nPig hearts underwent ex-vivo perfusion after preservation for 4 or 10 hours. Approval for human heart procurement was obtained from the University of Michigan Institutional Review Board (HUM00131275). Human donor hearts from deceased brain death donors were procured as per standard clinical protocols from the Gift of Life Michigan (GOLM) organ procurement facility. […]"}, "[3]": {"tested_on": "transplanted murine donor hearts", "test": "Murine heterotopic syngeneic heart transplantation", "assay_type": "in vivo, mouse", "description": "(§2) Cardiac grafts procured from WT C57Bl/6J mice following arrest with cold (4° C.) HTK±VPA were transplanted into the right neck of sex-matched syngeneic C57BL/6J recipient mice following 16 hours of cold (4° C.) preservation in corresponding HTK±VPA solution as previously described (59). A cuff technique was used to connect the recipient right common carotid artery and right external jugular vein to the donor ascending aorta and pulmonary artery, respectively. Following reperfusion in the recipient, successful grafts were expected to resume a regular heartbeat. At 24 hours after reperfusion, the surgical incision was reopened and a small conductance catheter was introduced into the LV to measure contractility and relaxation.\nBlood from recipient mice was centrifuged at 3000 g in 4° C. for 10 minutes. Serum was aliquoted and snap-frozen. Serum cTnT, cTnI, TNFα, IL-6, IP10 and MIG concentrations were measured using Sigma-Aldrich MILLIPLEX kits (Cat. No.: MCYTMAG, MCVD2MAG). Pig arterial perfusate was centrifuged at 3000 g in 4° C. for 10 minutes. The abundance of cTnI, IL-1β, IL-6 and TNF-α was detected using Sigma MILLIPLEX kit (Cat. No.: MCVD2MAG, PCYTMAG)."}, "human donor hearts": {"tested_on": "human donor hearts", "test": "Mass spectrometry metabolomics of cold-preserved human donor hearts", "description": "Pig hearts underwent ex-vivo perfusion after preservation for 4 or 10 hours. Approval for human heart procurement was obtained from the University of Michigan Institutional Review Board (HUM00131275). Human donor hearts from deceased brain death donors were procured as per standard clinical protocols from the Gift of Life Michigan (GOLM) organ procurement facility. Myocardial biopsies (˜5 mm^3) of LV were biopsied immediately after cardioplegic arrest (0 h) and after 8 hours (8 h) of cold storage in a cooler containing ice. […] Causes of death were stroke (n=4), trauma (n=2), drug overdose (n=1), and cardiac arrest (n=1). Heart tissue were either fixed in formalin or snap frozen in liquid N2 for later analysis.\n(§3) Metabolomics measurements were performed by the Michigan Regional Comprehensive Metabolomics Resource Core (Ann Arbor, MI, USA)."}, "murine hearts": {"tested_on": "murine hearts", "test": "Mass spectrometry metabolomics of preserved or transplanted murine hearts", "set-up": "species or system mouse", "description": "as §1, §2, §3"}, "[4]": {"settings": "16 h cold preservation, 24 h reperfusion in recipient"}, "[5]": {"settings": "recipient serum after transplantation"}, "[6]": {"settings": "human hearts during cardiac preservation"}, "[7]": {"settings": "cold static preservation as well as transplantation"}, "[8]": {"settings": "following murine heart transplantation"}, "[9]": {"settings": "mice hearts during cardiac preservation"}}}
{"smiles": "CCCC(CCC)C(=O)O", "note": "[VPA, 2-Propyl-pentanoic acid]", "values": [{"measurement": "Irg1 transcript expression", "setting": "Irg1", "value": "increased"}, {"measurement": "water solubility", "setting": "[1]", "value": "water soluble"}, {"measurement": "histone acetylation (H3K9, H3K27) after prolonged cardiac preservation", "setting": "[2]", "value": "maintained"}, {"measurement": "improvement of in vivo donor heart contractility (max dP/dt) compared to standard HTK solution alone", "setting": "[3]; [4]", "value": 265, "unit": "%"}, {"measurement": "improvement of in vivo donor heart relaxation (min dP/dt) compared to standard HTK solution alone", "setting": "[3]; [4]", "value": 250, "unit": "%"}, {"measurement": "cell death in transplanted heart tissue", "setting": "[3]; TUNEL", "value": "reduced"}, {"measurement": "serum concentration of IL-6", "setting": "[3]; [5]", "value": "reduced"}, {"measurement": "serum concentration of IP-10", "setting": "[3]; [5]", "value": "reduced"}, {"measurement": "serum concentration of MIG", "setting": "[3]; [5]", "value": "reduced"}, {"measurement": "serum concentration of TNFα", "setting": "[3]; [5]", "value": "reduced"}, {"measurement": "serum troponin I", "setting": "[3]; [5]", "value": "reduced"}, {"measurement": "serum troponin T", "setting": "[3]; [5]", "value": "reduced"}, {"measurement": "leukocyte infiltration", "setting": "[3]; transplanted heart tissue", "value": "reduced"}, {"measurement": "decrease in itaconate during cold storage", "setting": "human donor hearts; cold preservation, HTK±VPA", "value": "limited"}, {"measurement": "succinate production", "setting": "human donor hearts; cold preservation, HTK±VPA", "value": "reduced"}, {"measurement": "fumarate concentration in VPA-treated group", "setting": "human donor hearts; [6]", "value": "43.5±6.6", "unit": "pmol/mg tissue"}, {"measurement": "itaconate concentration in VPA-treated group", "setting": "human donor hearts; [6]", "value": "8.0±1.0", "unit": "pmol/mg tissue"}, {"measurement": "itaconate", "setting": "murine hearts; [7]", "value": "increased"}, {"measurement": "succinate", "setting": "murine hearts; [7]", "value": "decreased"}, {"measurement": "fumarate", "setting": "murine hearts; [8]", "value": "increased"}, {"measurement": "glutamate", "setting": "murine hearts; [8]", "value": "decreased"}, {"measurement": "malate", "setting": "murine hearts; [8]", "value": "increased"}, {"measurement": "fumarate concentration in VPA-treated group", "setting": "murine hearts; [9]", "value": "29.0±7.5", "unit": "pmol/mg tissue"}, {"measurement": "itaconate concentration in VPA-treated group", "setting": "murine hearts; [9]", "value": "8.8±0.8", "unit": "pmol/mg tissue"}, {"measurement": "acetyl-CoA, citrate, α-ketoglutarate, fumarate, or malate abundance", "setting": "murine hearts; murine hearts during cold preservation", "value": "no changes"}]}
